These are literature values, as cited in US20090239289A1, “Drain Foam Composition and Method of Using the Same” (priority 2008, published 2009).

For `CC(COc1ccc(Oc2ccccc2)cc1)Oc1ccccn1` (stereo not shown) [Nylar, 2-[1-methyl-2(4-phenoxyphenoxy)ethoxy]pyridine], the “residual when used outdoors” value is recorded as “about 30 days”.
